Source: ChEMBL document CHEMBL1201862, “PubChem BioAssay data set” (2004)
Where a name gives a salt, the structure may show the parent alone. Blank lines part the entries; values can stand above or below the compound they belong to. Activity calls are given as the source filed them.

Columns and labels:
[1] = target: Mitogen-activated protein kinase 10 (Homo sapiens, UniProt P53779); assay: Dose response biochemical screening assay for inhibitors of c-Jun N-Terminal Kinase 3 (JNK3). [Related pubchem assays: 746 ]
[2] = target: T1, Short transient receptor potential channel 4 (Mus musculus, UniProt Q9QUQ5); assay: calcium entry via TRPC4 opening agents – cell-based, HEK293 TRPC4/mu-opioid, Fluo-4 calcium, dose response (AID 434937); format: functional
T1 sequence (Q9QUQ5 whole entry): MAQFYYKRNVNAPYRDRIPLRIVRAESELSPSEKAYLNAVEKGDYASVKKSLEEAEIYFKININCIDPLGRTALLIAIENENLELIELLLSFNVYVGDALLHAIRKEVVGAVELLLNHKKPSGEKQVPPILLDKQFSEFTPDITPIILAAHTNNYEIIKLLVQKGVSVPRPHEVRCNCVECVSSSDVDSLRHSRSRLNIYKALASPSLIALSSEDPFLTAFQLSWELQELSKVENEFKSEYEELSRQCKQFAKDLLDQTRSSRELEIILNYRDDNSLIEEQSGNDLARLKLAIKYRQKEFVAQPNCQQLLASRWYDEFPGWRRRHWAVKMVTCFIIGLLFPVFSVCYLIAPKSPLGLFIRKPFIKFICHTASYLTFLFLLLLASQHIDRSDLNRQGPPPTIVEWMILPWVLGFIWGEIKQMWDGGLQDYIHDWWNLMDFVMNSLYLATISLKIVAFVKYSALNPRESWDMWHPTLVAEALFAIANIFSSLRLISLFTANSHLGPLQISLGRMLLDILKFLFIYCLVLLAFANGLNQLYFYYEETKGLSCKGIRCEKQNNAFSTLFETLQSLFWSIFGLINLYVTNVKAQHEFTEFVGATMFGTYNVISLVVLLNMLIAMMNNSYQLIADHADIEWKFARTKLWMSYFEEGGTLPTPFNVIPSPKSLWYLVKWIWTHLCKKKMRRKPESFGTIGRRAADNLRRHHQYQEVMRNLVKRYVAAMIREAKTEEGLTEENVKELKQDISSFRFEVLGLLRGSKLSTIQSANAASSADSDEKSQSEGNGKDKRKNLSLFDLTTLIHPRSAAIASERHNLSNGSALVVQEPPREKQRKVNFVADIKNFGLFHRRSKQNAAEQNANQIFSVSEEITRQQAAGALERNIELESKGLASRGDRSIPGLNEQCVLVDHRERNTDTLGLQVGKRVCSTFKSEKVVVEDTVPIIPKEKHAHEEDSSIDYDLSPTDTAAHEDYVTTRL

[3] = target: T1, Short transient receptor potential channel 4; assay: block of DAMGO-driven TRPC4 calcium entry – cell-based, HEK293 TRPC4/mu-opioid, Fluo-4 calcium, dose response (AID 434942); format: functional;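 further: potency of inhibitors blocking the TRPC4 calcium response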
[4] = target: Eukaryotic translation initiation factor 4E (Mus musculus, UniProt P63073); assay: blockers of eIF4G binding by eIF4E – biochemical, TR-FRET, dose response (AID 855); format: functional;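 further: potency for disrupting eIF4E binding to eIF4GI seen as loss of FRET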
[5] = Trypanosoma cruzi growth suppression in host cells – NIH3T3 host cells, beta-gal luminescence, confirmation (AID 2044); format: functional, cell-based;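 further: intracellular parasites grown in NIH/3T3 mouse fibroblasts as host cells; luminescent beta-galactosidase reporter signal from transgenic T. cruzi replicating inside host cells; inhibitors lower the luminescence signal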
[6] = NIH3T3 cell viability loss – ATP luminescence, mouse fibroblasts, counter-screen, dose response (AID 2010); format: functional, cell-based;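 further: cells exposed to compound for about 90 hours before reading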
INS1 = assay: INS-1E survival protection against cytokine death – cell-based, luminescence, retest, dose response (AID 449756); format: functional; conditions: Rattus norvegicus;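 further: cell death triggered by IL-1 beta plus TNF-alpha plus IFN-gamma mixture; protective hits raise ATP signal compared with cytokine alone wells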
[7] = target: T2, DNA repair protein RAD52 homolog (Homo sapiens, UniProt P43351); format: functional, biochemical
T2 sequence (P43351 whole entry): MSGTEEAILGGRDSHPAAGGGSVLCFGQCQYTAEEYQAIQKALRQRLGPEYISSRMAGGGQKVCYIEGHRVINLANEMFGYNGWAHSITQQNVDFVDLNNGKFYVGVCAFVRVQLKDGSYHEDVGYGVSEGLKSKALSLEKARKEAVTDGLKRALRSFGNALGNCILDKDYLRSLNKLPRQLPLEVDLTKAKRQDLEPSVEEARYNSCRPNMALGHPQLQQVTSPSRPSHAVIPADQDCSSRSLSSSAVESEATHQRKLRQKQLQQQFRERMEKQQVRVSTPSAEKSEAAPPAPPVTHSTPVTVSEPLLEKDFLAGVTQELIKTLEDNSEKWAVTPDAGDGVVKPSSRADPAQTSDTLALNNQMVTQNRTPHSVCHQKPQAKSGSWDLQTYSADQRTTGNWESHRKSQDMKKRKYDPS

cells [8] = format: functional, cell-based
[9] = target: T3, Trace amine-associated receptor 1 (Homo sapiens, UniProt Q96RJ0); assay: Fluorescence-based cell-based high throughput dose response assay to identify agonists of the human trace amine associated receptor 1 (TAAR1).; format: functional
T3 sequence (Q96RJ0 whole entry): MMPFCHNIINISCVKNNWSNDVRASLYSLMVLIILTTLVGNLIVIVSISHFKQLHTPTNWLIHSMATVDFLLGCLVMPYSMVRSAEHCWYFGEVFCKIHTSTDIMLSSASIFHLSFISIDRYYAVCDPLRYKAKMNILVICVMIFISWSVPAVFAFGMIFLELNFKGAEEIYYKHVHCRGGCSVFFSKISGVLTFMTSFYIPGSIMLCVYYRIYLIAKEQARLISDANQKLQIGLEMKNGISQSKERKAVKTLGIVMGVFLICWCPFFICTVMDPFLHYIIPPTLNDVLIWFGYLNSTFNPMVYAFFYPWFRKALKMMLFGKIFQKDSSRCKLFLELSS

[10] = target: T3, Trace amine-associated receptor 1; assay: Counterscreen for agonists of the human trace amine associated receptor 1 (hTAAR1): Fluorescence-based cell-based high throughput dose response assay to identify hTAAR1 agonist that also desensitize TAAR1 receptor response.; format: functional
cells [11] = format: functional, cell-based; remark: listed apart in the source
[12] = blockers of HIV-1 envelope-mediated cell-cell fusion – cherry-pick, dose response (AID 652057); format: functional, cell-based
[13] = blockers of HIV-1 ZM109 envelope-driven cell-cell fusion – HeLa effector, CEM target cells, luciferase, cherry-pick, dose response (AID 652058); format: functional, cell-based;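 further: luciferase signal from HIV-1 Env mediated cell-cell fusion of effector and target cells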
[14] = HIV-1 AD8 envelope cell-cell fusion blockers – cherry-pick, dose response (AID 652062); format: functional, cell-based;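 further: luciferase signal from cell-cell fusion driven by HIV-1 clade B AD8 Env; potency is for inhibitors of fusion seen as a drop in luminescence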
[15] = A549 cell cytotoxicity, dose response, cytotoxicity control, plate reader, cherry-pick, antagonist series (AID 743412); format: functional, cell-based
[16] = target: T4, DNA repair and recombination protein RAD54-like (Homo sapiens, UniProt Q92698); assay: RAD54 Holliday junction migration blockers – biochemical, fluorescence, cherry-picked samples, dose series, confirmation (AID 651657); format: functional
T4 sequence (Q92698 whole entry): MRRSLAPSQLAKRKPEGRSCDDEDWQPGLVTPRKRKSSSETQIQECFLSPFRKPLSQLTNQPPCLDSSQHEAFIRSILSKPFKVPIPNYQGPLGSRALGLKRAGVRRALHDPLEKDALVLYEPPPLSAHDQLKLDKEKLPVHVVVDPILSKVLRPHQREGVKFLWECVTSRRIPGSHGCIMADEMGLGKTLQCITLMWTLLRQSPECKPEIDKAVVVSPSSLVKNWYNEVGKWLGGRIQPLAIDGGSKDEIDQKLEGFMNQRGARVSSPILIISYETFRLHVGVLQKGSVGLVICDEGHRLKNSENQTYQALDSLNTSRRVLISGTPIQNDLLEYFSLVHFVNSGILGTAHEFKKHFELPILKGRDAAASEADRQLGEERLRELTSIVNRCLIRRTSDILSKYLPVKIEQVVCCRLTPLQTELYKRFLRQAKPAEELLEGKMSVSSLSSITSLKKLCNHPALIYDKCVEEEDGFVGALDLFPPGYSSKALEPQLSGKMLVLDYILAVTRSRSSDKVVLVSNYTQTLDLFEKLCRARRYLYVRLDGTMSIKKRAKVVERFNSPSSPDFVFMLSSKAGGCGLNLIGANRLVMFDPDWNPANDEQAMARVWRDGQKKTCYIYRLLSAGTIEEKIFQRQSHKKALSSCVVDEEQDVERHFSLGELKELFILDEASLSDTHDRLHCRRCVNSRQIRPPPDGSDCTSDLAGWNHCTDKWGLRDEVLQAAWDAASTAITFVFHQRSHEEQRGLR

Large T antigen = Large T antigen (Simian virus 40, UniProt P03070); format: functional, Betapolyomavirus macacae;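 further: Confirmatory-stage PubChem screen for compounds that inhibit SV40 T antigen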
[17] = target: FAD-linked sulfhydryl oxidase ALR (Homo sapiens, UniProt P55789); assay: ALR-catalysed DTT oxidation blockers – biochemical, H2O2 detection, luminescence, cherry-pick, dose response (AID 493248)
Sequence of FAD-linked sulfhydryl oxidase ALR (P55789 whole entry): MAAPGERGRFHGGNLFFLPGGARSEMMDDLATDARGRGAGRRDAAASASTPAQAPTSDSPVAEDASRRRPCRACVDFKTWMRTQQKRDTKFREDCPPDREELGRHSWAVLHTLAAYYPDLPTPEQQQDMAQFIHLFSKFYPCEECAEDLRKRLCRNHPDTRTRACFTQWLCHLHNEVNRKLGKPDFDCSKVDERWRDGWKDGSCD

Sequence of Mitogen-activated protein kinase 10 (P53779 whole entry): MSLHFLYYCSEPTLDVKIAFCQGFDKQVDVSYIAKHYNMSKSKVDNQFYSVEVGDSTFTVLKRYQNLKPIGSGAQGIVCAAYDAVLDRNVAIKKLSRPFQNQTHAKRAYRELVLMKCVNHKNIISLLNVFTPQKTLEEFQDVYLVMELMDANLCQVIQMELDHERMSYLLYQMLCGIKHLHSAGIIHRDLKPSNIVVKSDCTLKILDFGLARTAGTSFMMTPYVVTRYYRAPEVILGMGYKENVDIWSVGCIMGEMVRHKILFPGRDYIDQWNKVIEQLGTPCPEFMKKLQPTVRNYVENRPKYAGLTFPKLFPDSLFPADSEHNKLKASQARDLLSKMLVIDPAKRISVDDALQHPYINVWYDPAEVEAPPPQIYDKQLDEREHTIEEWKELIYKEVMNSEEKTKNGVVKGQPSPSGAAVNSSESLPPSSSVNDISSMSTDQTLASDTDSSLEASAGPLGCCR
Sequence of Large T antigen (P03070 whole entry): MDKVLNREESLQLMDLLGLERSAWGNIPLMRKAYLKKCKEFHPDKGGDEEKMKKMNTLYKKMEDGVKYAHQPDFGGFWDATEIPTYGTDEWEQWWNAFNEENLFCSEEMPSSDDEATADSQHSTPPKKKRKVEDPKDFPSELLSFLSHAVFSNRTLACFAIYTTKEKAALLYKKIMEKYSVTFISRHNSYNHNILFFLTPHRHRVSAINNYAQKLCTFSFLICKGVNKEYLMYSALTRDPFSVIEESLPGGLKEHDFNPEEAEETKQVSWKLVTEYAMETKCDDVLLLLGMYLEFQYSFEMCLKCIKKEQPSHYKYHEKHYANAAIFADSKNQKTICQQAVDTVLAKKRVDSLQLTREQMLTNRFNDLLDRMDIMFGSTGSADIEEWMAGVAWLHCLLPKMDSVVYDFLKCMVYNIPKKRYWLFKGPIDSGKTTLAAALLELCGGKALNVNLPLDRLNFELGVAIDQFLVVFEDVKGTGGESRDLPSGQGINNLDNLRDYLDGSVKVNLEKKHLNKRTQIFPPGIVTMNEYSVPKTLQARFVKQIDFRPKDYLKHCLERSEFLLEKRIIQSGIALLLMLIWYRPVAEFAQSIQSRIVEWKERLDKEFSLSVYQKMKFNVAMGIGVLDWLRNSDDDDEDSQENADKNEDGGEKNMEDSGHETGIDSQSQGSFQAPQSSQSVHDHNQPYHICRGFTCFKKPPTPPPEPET
Sequence of Eukaryotic translation initiation factor 4E (P63073 whole entry): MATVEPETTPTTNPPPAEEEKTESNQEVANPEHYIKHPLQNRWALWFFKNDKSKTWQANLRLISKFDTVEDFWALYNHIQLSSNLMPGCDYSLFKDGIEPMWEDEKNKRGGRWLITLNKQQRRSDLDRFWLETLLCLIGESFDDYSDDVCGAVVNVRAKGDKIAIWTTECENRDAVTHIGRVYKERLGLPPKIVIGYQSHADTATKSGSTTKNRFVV

IC50 [1]: 49.2 µM (not active)
Compound: O=C(CCCn1c(=S)[nH]c2ccccc2c1=O)NCc1ccco1

EC50 [2]: 2.11 µM (active)
Compound: CN(CCc1ccccn1)C1CC(=O)N(c2ccc(Cl)cc2)C1=O (configuration not stated)

EC50 [3]: 5.31 µM (active) | EC50 [2]: 4.22 µM (active)
Compound: O=C(NC1CC1)C1=C[C@H](C2CCCCC2)C[C@H](OCc2ccc(CO)cc2)O1

IC50 [4]: 50 µM (inactive)
Compound: O=C(O)CSc1nnc(COc2cccc3cccnc23)n1-c1cccc(C(F)(F)F)c1

IC50 [1]: > 93.1 µM (not active)
Compound: CCOC(=O)c1c(C)[nH]c2ccc(O)cc12

Compound: CCOC(=O)c1c(NC(=O)C[n+]2ccc(Cc3ccccc3)cc2)sc(C)c1C
EC50 [5]: 1.83 µM (active) | EC50 [6]: > 60 µM (not active) | AC50 (INS1): 5.35 µM (active) | AC50 [7]: 20.5 µM (active)

IC50 [1]: 27.7 µM (not active)
Compound: N#CCCSc1ncnc2c1oc1ccccc12

AC50 [7]: 19.7 µM (active)
Compound: CN1CCN(CCCC(=O)c2ccc(C3CCCC3)cc2)CC1

IC50 [1]: 56.9 µM (not active)
Compound: Cn1nnnc1SCc1ccc(C(=O)Nc2nccs2)cc1

EC50 [2]: 0.944 µM (active)
Compound: COc1ccc(C(CNC(=O)c2cc(SC)ccc2Cl)N(C)C)cc1 (configuration not stated)

Compound: O=C(O)C1C2C=CC(C2)C1C(=O)NCCC1=CCCCC1 (configuration not stated)
IC50 (cells [8]): > 29.9 µM (inactive) | EC50 [9]: 0.916 µM (active) | IC50 [10]: > 29.9 µM (inactive) | EC50 (cells [11]): > 29.9 µM (inactive)

Compound: CCOC(=O)[C@]12CCCC=C1N(CCC1=CCCCC1)C(=O)[C@H](CC(=O)NCCc1ccccc1OC)C2
IC50 (cells [8]): 26.9 µM (inactive) | EC50 [9]: 3.59 µM (active) | IC50 [10]: 5.92 µM (active) | EC50 (cells [11]): > 29.9 µM (inactive)

Compound: O=C(NCCc1ccc(O)cc1)c1[nH]c(C(F)(F)F)nc1-c1ccccc1
IC50 (cells [8]): > 29.9 µM (inactive) | EC50 [9]: 0.485 µM (active) | IC50 [10]: 5.53 µM (active) | EC50 (cells [11]): > 29.9 µM (inactive)

Compound: C[C@@H]1CN([C@@H](C)CO)C(=O)c2ccccc2-c2ccccc2CO[C@@H]1CN(C)C(=O)Nc1ccc2c(c1)OCO2
AC50 [12]: 0.318 µM (active) | AC50 [13]: 0.54 µM (active) | AC50 [14]: 1.6 µM (active)

Compound: COCC(=O)N[C@@H]1CC[C@@H](CC(=O)NCc2ccccc2OC)O[C@@H]1CO
AC50 [15]: > 52 µM (inactive)

AC50 [7]: 16.3 µM (active)
Compound: NCCCCCC(=O)N/N=C/c1ccc2nccnc2c1

Compound: COc1ccccc1Nc1nc(NCC2CCCO2)c2ccccc2n1 (configuration not stated)
EC50 [5]: 0.194 µM (active) | EC50 [6]: > 60 µM (not active) | EC50 [3]: 2.66 µM (active) | AC50 [16]: 81.9 µM (active)

Compound: Oc1ccc(C2CNCCc3c2cc(O)c(O)c3Cl)cc1 (configuration not stated) [FENOLDOPAM MESYLATE]
IC50 (Large T antigen): > 100 µM (active) | AC50 [17]: 1.37 µM (active) | IC50 (cells [8]): > 29.9 µM (inactive) | EC50 [9]: 2.7 µM (active) | AC50 [7]: 21.7 µM (active) | IC50 [10]: 8.04 µM (active) | EC50 (cells [11]): > 29.9 µM (inactive)
